{
  "source": "patent US7776828B2",
  "about": "“Radiation therapy methods” (University of Southern California, priority 1998, dated 2010)",
  "key": {"[1]": {"tested_on": "AT2 receptor", "settings": "cited from earlier work"}, "[2]": {"test": "Effectiveness testing of AII fragments (test not specified)", "settings": "test not described"}, "[3]": {"tested_on": "Female C57B1/6 mice", "test": "Post-irradiation mouse mortality/survival (600 cGy total body irradiation)", "assay_type": "in vivo", "experimental": "(§1) Female C57B1/6 mice (Jackson Labs, Bar Harbor, Me.) were irradiated with 600 cGy total body irradiation. Subcutaneous injection with either AII (10 μg/kg/day or 100 μg/kg/day) or saline (placebo) was initiated two days before (−day 2), on the day of (day 0) or 2 days after (+day 2) irradiation and continued until the animals succumbed to the irradiation or were necropsied. At various times after irradiation, the mice were anaesthetized with Metofane (Pittman-Moore Animal Health, NZ) and bled via the retro-orbital sinus. Red blood cells were lysed with 0.3% acetic acid and the number of white blood cells was determined by counting with a hemacytometer. […] Furthermore, AII administration at all time periods tested increased the number of circulating white blood cells (FIGS. 4-6)."}, "[4]": {"tested_on": "Female C57B1/6 mice", "test": "Blood cell recovery after irradiation (white blood cells, megakaryocytes, monocytes, neutrophils, lymphocytes)", "assay_type": "in vivo", "experimental": "as §1"}, "[5]": {"tested_on": "C57B1/6 mice", "test": "Survival and white blood cell number of mice receiving bone marrow transplantation after lethal irradiation", "assay_type": "in vivo", "experimental": "Donor C57B1/6 mice (female, 6-8 weeks old) were irradiated with 600 cGy total body irradiation. Starting on the day of irradiation, the mice received either saline (0.1 ml) or 20 μg/ml angiotensin II (0.1 ml, 100 μg/kg) subcutaneously for fourteen days. At the end of this period, the bone marrow was harvested from the femur by flushing and the number of viable nucleated cells determined by counting under a light microscope on a hemacytometer in the presence of trypan blue.\nThese donor bone marrow cells were then injected intravenously into recipient mice (female C57B1/6, 6-8 weeks old) that had been lethally irradiated (900 cGy total body irradiation) at two concentrations: 1×10^6 or 1×10^5 cells per mouse. After injection, the recipient mice received either saline or 100 μg/kg AII subcutaneously until death or termination. The study design in its entirety is as follows:\nThe survival of the mice and the number of circulating white blood cells were measured as a function of time post-bone marrow transplantation."}, "[6]": {"tested_on": "wound tissue", "settings": "application to wound tissue; cited from earlier work"}, "[7]": {"tested_on": "cultured cells that are involved in wound repair", "settings": "cited from earlier work"}, "[8]": {"tested_on": "rabbit corneal eye", "settings": "rabbit corneal eye model; cited from earlier work"}, "[9]": {"tested_on": "chick chorioallantoic membrane", "settings": "chick chorioallantoic membrane model; cited from earlier work"}, "[10]": {"settings": "recipients 900 cGy, AII 100 μg/kg s.c. to donor and/or recipient"}},
  "note": "“Also recorded” adds a separate entry of the source. Non-standard residues stand in square brackets, D forms with d. No end group written: not given here. Phe(4-NH2) = Nc1ccc(C[C@H](N)C(=O)O)cc1",
  "data": [
    {"substance": "Asp-Arg-Val-Tyr-Ile-Xaa-Pro-Phe (DRVYI[Phe(4-NH2)]PF) [p-aminophenylalanine6-AII, reference compound]", "values": [
      {"measurement": "binding characteristics", "setting": "[1]; compared with AT2 antagonists in the experimental models tested", "value": "comparable to AT2 antagonists"}
    ]},
    {"substance": "His-Pro-Phe (HPF) [AII(6-8)]", "values": [
      {"measurement": "effectiveness", "setting": "[2]", "value": "not to be effective"}
    ]},
    {"substance": "Asp-Arg-Val-Tyr-Ile-His-Pro-Phe (DRVYIHPF) [AII]", "values": [
      {"measurement": "survival after irradiation", "setting": "[3]; AII 10 or 100 μg/kg/day s.c. starting on the day of irradiation (day 0), FIG. 2", "value": "substantially increased survival"},
      {"measurement": "survival after irradiation", "setting": "[3]; AII 10 or 100 μg/kg/day s.c. starting two days after irradiation (+day 2), FIG. 3", "value": "substantially increased survival"},
      {"measurement": "protection against mortality resulting from irradiation", "setting": "[3]; AII 10 or 100 μg/kg/day s.c. starting two days prior to irradiation (-day 2), FIG. 1", "value": "did not protect against mortality"},
      {"measurement": "number of megakaryocytes", "setting": "[4]; after 600 cGy irradiation, FIGS. 7-9", "value": "increased"},
      {"measurement": "number of monocytes", "setting": "[4]; after 600 cGy irradiation, FIGS. 10-12", "value": "increased"},
      {"measurement": "number of neutrophils", "setting": "[4]; after 600 cGy irradiation, FIGS. 13-15", "value": "increased"},
      {"measurement": "number of lymphocytes", "setting": "[4]; after 600 cGy irradiation, FIGS. 16-18", "value": "increased"},
      {"measurement": "number of circulating white blood cells", "setting": "[4]; all time periods tested (-day 2, day 0, +day 2), 600 cGy, FIGS. 4-6", "value": "increased"},
      {"measurement": "number of circulating white blood cells post-bone marrow transplantation", "setting": "[5]; [10]", "value": "increased"},
      {"measurement": "survival post-bone marrow transplantation", "setting": "[5]; [10]", "value": "increased"},
      {"measurement": "benefit (survival and white blood cell number)", "setting": "[5]; treatment of both the donor bone marrow cells and the recipient mice with AII", "value": "greatest benefit"},
      {"measurement": "affinity for AT2 than AT1", "setting": "[1]; selectivity AT2 over AT1", "value": 100, "unit": "times"},
      {"measurement": "rate of wound healing", "setting": "[6]", "value": "significantly increases"},
      {"measurement": "mitogenesis and chemotaxis", "setting": "[7]", "value": "increases"},
      {"measurement": "release of growth factors and extracellular matrices", "setting": "[7]", "value": "increases"},
      {"measurement": "angiogenic activity", "setting": "[8]", "value": "angiogenic"},
      {"measurement": "angiogenic activity", "setting": "[9]", "value": "angiogenic"}
    ]},
    {"substance": "Tyr-Ile-His-Pro-Phe (YIHPF) [AII(4-8)]", "values": [
      {"measurement": "effectiveness", "setting": "[2]", "value": "not to be effective; also recorded: ineffective"}
    ]}
  ]
}
